Laboratory results published in US10231954B2, “Neurodegenerative therapies” (LYTIX BIOPHARMA AS, priority 2014, dated 2019).

Assays:
MKK2 = MKK2 (Homo sapiens, UniProt P36507); test: Kinase profiling MKK2; assay type: biochemical; conditions: 100 micromolar inhibitor concentration; 100 is no change
Text: (§1) Any value less that 25 is considered to be highly significant inhibition.

PRK2 = PRK2 (Homo sapiens, UniProt Q16513); test: Kinase profiling PRK2; assay type: biochemical
Text: as §1

PKA = PKA (Homo sapiens, UniProt P17612); test: Kinase profiling PKA; assay type: biochemical
Text: as §1

PKBa = PKBa (Homo sapiens, UniProt P31749); test: Kinase profiling PKBa; assay type: biochemical
Text: as §1

RSK1 = RSK1 (Homo sapiens, UniProt Q15418); test: Kinase profiling RSK1; assay type: biochemical
Text: as §1

MKK6 = biological target: T1, MKK6 (Homo sapiens, UniProt P52564); test: Kinase profiling MKK6; assay type: biochemical; conditions: 100 micromolar inhibitor concentration; 100 is no change
T1 sequence (P52564 1-334): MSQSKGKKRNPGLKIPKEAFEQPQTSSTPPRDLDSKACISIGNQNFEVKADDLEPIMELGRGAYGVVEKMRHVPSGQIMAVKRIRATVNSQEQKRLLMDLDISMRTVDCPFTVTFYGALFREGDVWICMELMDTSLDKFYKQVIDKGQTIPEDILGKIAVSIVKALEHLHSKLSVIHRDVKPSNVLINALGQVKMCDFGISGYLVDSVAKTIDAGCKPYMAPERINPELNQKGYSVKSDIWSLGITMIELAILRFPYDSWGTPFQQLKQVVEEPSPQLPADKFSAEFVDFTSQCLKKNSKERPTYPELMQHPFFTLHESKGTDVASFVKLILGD
Text: as §1

PKCa = PKCa (Homo sapiens, UniProt P17252); test: Kinase profiling PKCa; assay type: biochemical
Text: as §1

ROCK 2 = ROCK 2 (Homo sapiens, UniProt O75116); test: Kinase profiling ROCK 2; assay type: biochemical
Text: as §1

PDK1 = biological target: T2, PDK1 (Homo sapiens, UniProt O15530); test: Kinase profiling PDK1; assay type: biochemical
T2 sequence (O15530 1-556): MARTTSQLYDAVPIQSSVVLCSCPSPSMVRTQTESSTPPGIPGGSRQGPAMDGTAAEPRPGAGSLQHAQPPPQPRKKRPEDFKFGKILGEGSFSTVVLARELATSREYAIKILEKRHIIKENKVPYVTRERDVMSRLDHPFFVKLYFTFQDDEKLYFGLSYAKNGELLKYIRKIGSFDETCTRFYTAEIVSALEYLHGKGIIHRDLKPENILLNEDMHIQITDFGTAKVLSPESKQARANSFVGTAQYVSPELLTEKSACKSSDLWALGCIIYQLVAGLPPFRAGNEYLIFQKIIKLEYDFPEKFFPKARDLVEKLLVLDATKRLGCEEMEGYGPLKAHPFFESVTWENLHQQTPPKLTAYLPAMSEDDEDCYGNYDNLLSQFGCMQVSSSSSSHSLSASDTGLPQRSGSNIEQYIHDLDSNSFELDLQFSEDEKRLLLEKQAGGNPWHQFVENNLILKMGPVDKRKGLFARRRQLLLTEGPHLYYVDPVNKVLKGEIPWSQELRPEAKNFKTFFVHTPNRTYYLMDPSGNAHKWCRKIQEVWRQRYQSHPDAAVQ
Text: as §1

p38b MAPK = p38b MAPK (Homo sapiens, UniProt Q15759); test: Kinase profiling p38b MAPK; assay type: biochemical; conditions: 100 micromolar inhibitor concentration; 100 is no change
Text: as §1

S6K1 = S6K1 (Homo sapiens, UniProt P23443); test: Kinase profiling S6K1; assay type: biochemical
Text: as §1

JNK1 = JNK1 (Homo sapiens, UniProt P45983); test: Kinase profiling JNK1; assay type: biochemical
Text: as §1

IGF-1R = IGF-1R (Homo sapiens, UniProt P08069); test: Kinase profiling IGF-1R; assay type: biochemical; conditions: 100 micromolar inhibitor; 100 = no change
Text: as §1

PLK1 = PLK1 (Homo sapiens, UniProt P53350); test: Kinase profiling PLK1; assay type: biochemical; conditions: 100 micromolar inhibitor; 100 = no change
Text: as §1

CAMKKb = CAMKKb (Homo sapiens, UniProt Q96RR4); test: Kinase profiling CAMKKb; assay type: biochemical; conditions: 100 micromolar inhibitor; 100 = no change
Text: as §1

EPH-A2 = EPH-A2 (Homo sapiens, UniProt P29317); test: Kinase profiling EPH-A2; assay type: biochemical; conditions: 100 micromolar inhibitor; 100 = no change
Text: as §1

PIM1 = PIM1 (Homo sapiens, UniProt P11309); test: Kinase profiling PIM1; assay type: biochemical; conditions: 100 micromolar inhibitor; 100 = no change
Text: as §1

BTK = BTK (Homo sapiens, UniProt Q06187); test: Kinase profiling BTK; assay type: biochemical; conditions: 100 micromolar inhibitor; 100 = no change
Text: as §1

RIPK2 = RIPK2 (Homo sapiens, UniProt O43353); test: Kinase profiling RIPK2; assay type: biochemical; conditions: 100 micromolar inhibitor; 100 = no change
Text: as §1

AMPK (hum) = test: Kinase profiling AMPK (hum); assay type: biochemical, human; conditions: 100 micromolar inhibitor; 100 = no change
Text: as §1

HER4 = HER4 (Homo sapiens, UniProt Q15303); test: Kinase profiling HER4; assay type: biochemical; conditions: 100 micromolar inhibitor; 100 = no change
Text: as §1

[1] = 100 micromolar inhibitor concentration, 100 is no change
[2] = 100 micromolar inhibitor, 100 = no change

Sequence of JNK1 (P45983 whole entry, species assumed): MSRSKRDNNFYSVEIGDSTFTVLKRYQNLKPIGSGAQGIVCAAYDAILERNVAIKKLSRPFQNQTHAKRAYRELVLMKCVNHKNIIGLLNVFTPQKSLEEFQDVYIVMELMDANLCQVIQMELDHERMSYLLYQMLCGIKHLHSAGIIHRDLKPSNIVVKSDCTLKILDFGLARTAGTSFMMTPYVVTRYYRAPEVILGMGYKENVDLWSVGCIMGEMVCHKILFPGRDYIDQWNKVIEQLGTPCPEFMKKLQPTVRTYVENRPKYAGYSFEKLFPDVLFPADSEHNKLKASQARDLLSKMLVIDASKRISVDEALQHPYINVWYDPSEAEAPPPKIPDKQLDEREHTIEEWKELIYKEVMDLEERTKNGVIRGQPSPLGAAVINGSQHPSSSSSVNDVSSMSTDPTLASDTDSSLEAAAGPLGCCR
Sequence of ROCK 2 (O75116 whole entry, species assumed): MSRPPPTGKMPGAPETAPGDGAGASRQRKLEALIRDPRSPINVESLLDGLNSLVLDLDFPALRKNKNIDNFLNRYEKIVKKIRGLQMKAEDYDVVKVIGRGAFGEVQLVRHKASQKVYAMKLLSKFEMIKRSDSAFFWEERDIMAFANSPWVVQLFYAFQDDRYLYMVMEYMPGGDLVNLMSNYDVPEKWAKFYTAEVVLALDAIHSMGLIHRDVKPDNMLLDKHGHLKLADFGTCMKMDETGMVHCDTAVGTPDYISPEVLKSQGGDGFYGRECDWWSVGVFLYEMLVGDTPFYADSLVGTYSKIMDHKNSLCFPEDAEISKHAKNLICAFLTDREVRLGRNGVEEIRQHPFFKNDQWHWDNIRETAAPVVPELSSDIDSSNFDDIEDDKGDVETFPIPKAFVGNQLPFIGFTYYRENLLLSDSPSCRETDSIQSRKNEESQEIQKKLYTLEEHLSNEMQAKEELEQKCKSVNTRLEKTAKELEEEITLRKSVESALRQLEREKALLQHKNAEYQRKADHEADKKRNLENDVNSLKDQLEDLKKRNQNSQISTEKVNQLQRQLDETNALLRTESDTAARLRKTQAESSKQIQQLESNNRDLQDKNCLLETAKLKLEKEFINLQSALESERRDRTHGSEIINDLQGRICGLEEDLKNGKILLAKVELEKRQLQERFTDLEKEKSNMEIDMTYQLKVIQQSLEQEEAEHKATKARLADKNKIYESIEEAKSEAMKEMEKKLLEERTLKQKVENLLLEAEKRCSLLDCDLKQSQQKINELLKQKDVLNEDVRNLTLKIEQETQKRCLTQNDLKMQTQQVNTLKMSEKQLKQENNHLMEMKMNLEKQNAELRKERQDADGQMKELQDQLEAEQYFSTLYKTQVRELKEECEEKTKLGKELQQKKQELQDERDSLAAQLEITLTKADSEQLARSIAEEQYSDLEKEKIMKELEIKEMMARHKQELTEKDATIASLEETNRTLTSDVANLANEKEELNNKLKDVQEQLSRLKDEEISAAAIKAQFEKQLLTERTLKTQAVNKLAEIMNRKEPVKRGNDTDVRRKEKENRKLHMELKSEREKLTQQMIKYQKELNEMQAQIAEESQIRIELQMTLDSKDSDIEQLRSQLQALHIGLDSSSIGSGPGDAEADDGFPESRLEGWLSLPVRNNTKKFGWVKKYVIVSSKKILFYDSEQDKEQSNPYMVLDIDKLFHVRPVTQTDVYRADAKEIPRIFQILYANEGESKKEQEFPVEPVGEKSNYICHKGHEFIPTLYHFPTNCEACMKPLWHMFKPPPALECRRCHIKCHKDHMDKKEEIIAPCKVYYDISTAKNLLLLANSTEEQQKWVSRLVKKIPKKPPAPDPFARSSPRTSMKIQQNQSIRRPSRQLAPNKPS
Sequence of RSK1 (Q15418 whole entry, species assumed): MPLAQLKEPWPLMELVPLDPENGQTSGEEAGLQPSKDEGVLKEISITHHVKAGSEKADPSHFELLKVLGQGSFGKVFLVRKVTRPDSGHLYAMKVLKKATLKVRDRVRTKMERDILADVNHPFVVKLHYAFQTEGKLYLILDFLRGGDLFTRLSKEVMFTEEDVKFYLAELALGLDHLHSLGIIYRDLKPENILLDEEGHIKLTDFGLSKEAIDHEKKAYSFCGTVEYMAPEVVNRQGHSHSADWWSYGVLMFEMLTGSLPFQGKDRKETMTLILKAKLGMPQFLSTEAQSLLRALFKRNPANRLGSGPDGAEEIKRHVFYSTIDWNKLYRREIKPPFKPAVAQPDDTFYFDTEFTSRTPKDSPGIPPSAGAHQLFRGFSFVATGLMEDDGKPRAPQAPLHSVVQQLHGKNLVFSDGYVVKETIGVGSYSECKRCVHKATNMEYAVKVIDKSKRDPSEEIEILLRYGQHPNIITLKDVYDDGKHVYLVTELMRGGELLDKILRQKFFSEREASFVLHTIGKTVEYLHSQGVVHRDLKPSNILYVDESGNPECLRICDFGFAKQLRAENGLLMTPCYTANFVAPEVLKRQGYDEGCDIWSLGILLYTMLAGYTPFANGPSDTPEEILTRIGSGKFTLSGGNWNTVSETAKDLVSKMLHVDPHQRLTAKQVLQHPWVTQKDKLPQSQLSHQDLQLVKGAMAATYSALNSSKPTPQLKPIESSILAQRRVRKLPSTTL
Sequence of PRK2 (Q16513 whole entry, species assumed): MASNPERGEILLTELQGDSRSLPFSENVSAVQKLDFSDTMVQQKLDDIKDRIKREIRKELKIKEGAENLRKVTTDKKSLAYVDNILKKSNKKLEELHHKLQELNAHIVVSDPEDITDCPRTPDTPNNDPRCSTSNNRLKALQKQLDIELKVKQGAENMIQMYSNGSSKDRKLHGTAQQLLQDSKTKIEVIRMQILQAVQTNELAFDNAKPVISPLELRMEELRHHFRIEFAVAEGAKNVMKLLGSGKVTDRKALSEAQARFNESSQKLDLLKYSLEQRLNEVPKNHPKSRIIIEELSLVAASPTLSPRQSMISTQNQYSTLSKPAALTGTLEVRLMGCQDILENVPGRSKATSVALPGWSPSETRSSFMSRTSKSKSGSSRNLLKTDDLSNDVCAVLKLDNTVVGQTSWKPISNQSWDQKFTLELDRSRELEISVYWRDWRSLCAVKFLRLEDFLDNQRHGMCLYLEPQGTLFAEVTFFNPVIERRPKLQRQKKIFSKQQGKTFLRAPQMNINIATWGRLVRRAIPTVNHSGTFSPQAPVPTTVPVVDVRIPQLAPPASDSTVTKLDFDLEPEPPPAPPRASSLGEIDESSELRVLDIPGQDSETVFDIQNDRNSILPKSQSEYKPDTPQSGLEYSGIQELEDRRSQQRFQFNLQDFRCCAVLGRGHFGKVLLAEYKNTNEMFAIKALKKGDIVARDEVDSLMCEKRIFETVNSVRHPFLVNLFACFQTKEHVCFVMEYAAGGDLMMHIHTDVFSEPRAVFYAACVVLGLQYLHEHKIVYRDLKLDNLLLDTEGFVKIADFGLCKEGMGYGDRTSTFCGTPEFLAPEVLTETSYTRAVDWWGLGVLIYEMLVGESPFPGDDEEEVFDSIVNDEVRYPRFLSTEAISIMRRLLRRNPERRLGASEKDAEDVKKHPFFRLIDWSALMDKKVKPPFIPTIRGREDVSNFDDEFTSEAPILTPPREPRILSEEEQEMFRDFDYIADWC
Sequence of S6K1 (P23443 whole entry, species assumed): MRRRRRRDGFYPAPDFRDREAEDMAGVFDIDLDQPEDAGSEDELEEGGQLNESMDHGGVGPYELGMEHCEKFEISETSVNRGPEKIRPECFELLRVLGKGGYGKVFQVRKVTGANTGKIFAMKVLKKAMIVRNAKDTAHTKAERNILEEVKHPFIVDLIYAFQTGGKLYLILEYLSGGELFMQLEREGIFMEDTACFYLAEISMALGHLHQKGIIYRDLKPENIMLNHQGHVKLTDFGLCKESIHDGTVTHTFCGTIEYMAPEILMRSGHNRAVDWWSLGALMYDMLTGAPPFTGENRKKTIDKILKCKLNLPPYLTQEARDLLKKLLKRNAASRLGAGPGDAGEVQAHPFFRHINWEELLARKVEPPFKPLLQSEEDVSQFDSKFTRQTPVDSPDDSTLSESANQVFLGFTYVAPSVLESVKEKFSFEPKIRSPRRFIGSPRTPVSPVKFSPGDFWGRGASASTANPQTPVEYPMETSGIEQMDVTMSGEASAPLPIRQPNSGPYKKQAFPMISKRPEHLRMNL
Sequence of p38b MAPK (Q15759 whole entry): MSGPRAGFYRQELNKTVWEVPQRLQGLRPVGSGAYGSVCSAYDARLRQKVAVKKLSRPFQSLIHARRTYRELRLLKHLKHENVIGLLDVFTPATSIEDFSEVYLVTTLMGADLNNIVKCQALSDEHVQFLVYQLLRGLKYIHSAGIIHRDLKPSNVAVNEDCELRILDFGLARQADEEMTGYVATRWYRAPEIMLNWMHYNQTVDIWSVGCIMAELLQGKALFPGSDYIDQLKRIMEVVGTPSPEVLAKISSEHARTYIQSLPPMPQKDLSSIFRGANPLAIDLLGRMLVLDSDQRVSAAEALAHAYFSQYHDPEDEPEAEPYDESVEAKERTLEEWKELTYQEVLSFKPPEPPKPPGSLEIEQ
Sequence of MKK2 (P36507 whole entry, species assumed): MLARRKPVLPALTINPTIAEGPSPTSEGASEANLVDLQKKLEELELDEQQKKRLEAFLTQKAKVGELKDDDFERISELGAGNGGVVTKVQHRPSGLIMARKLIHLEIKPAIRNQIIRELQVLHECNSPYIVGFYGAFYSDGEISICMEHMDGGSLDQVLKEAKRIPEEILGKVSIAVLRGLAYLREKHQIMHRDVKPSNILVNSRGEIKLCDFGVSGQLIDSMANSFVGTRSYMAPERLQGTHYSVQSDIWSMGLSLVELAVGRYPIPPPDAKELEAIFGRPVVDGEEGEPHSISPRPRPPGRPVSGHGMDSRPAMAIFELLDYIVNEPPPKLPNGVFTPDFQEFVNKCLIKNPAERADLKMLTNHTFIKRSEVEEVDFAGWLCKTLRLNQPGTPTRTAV

SMILES | residual kinase activity, MKK2 (MKK2) | residual kinase activity, PRK2 (PRK2; [1]) | residual kinase activity, PKA (PKA; [1]) | residual kinase activity, PKBa (PKBa; [1]) | residual kinase activity, RSK1 (RSK1; [1]) | residual kinase activity, MKK6 (MKK6) | residual kinase activity, PKCa (PKCa; [1]) | residual kinase activity, ROCK 2 (ROCK 2; [1]) | residual kinase activity, PDK1 (PDK1; [1]) | residual kinase activity, p38b MAPK (p38b MAPK) | residual kinase activity, S6K1 (S6K1; [1]) | residual kinase activity, JNK1 (JNK1; [1]) | also measured
CC(=O)Nc1cccc(C(=O)Nc2nc3ccc(O)cc3s2)c1 [Compound 03-58] | 86 | 36 | 90 | 92 | 35 | 103 | 96 | 10 | 96 | 75 | 9 | 80 | –
CC(=O)NC(C)C(=O)Nc1nc2ccc(C(F)(F)F)cc2s1 (stereo not drawn) [Compound 03-80] | 75 | 79 | 104 | 105 | 90 | 115 | 125 | 80 | 86 | 77 | 97 | 86 | –
CC(=O)Nc1ccccc1C(=O)Nc1nc2ccc(O)cc2s1 [Compound 08-39] | 78 | 42 | 88 | 84 | 30 | 96 | 43 | 22 | 66 | 96 | 12 | 92 | –
COc1cccc(NC(=O)Nc2nc3cc(O)ccc3s2)c1 [Compound 13-62] | – | – | – | – | – | – | – | – | – | – | – | – | residual kinase activity, IGF-1R (IGF-1R): 62; residual kinase activity, PLK1 (PLK1): 98; residual kinase activity, PRK2 (PRK2; [2]): 40; residual kinase activity, CAMKKb (CAMKKb): 25; residual kinase activity, EPH-A2 (EPH-A2): 81; residual kinase activity, PKA (PKA; [2]): 104; residual kinase activity, PIM1 (PIM1): 14; residual kinase activity, PKBa (PKBa; [2]): 66; residual kinase activity, BTK (BTK): 25; residual kinase activity, RSK1 (RSK1; [2]): 25; residual kinase activity, RIPK2 (RIPK2): 6; residual kinase activity, PKCa (PKCa; [2]): 102; residual kinase activity, ROCK 2 (ROCK 2; [2]): 11; residual kinase activity, PDK1 (PDK1; [2]): 77; residual kinase activity, AMPK (hum) (AMPK (hum)): 23; residual kinase activity, HER4 (HER4): 13; residual kinase activity, S6K1 (S6K1; [2]): 22; residual kinase activity, JNK1 (JNK1; [2]): 114
COc1ccc2sc(NC(=O)c3ccc(NC(C)=O)cc3)nc2c1 [MS:LY-2-77] | 95 | 92 | 102 | 89 | 85 | 111 | 97 | 96 | 103 | 110 | 94 | 104 | –
COc1ccc2sc(NC(=O)c3cccc(NC(C)=O)c3)nc2c1 [MS:LY-2-85] | 80 | 66 | 98 | 90 | 54 | 99 | 63 | 29 | 80 | 92 | 50 | 97 | –
CC(=O)Nc1ccc(C(=O)Nc2nc3cc(O)ccc3s2)cc1 [MS:LY-2-87] | 73 | 67 | 93 | 86 | 29 | 107 | 59 | 38 | 69 | 82 | 39 | 105 | –
CC(=O)Nc1cccc(C(=O)Nc2nc3cc(O)ccc3s2)c1 [MS:LY-2-89] | 47 | 44 | 87 | 82 | 13 | 98 | 48 | 11 | 44 | 17 | 14 | 68 | –
